Results from a melting point compilation (Tetko et al.; mined from patent text by program, amines drawn as free bases though some values may be those of a salt).

Row | Compound | melting point [°C]
1 | CN(C)Cc1cccc(-c2cc(-c3ccccc3O)nc(NC(=O)c3cccs3)c2C#N)c1 | 225 to 226
2 | CCOC(=O)CCCOc1cccc(Oc2nc(OC)cc(OC)n2)c1C=NNc1ccc(Cl)cc1 | 139
3 | CCOC(=O)C(=CNc1c[nH]nn1)C(=O)c1cc(F)c(F)cc1F | 157 to 159
4 | Cc1[nH]cnc1C=CC(=O)c1cn2c3c(cccc13)CCC2 | 108 to 110
5 | C[C@H](c1ccccc1)n1c(O)nc2c(N)nc3ccccc3c21 | > 250
6 | O=C1CCc2cc(Br)c3c(c21)CCO3 | 149 to 150
7 | OCC(O)CNCC(O)C(O)C(O)C(O)CO (configuration not stated) | 133 to 134
8 | COc1ccc(C(=O)Nc2ccccc2)cc1NS(=O)(=O)c1ccc2ccccc2c1 | 223 to 225
9 | CCOC(=O)c1cc(C#N)c(C)nc1NC | 103 to 105
10 | O=C(NNc1ccc([N+](=O)[O-])cc1)c1ccc(Cl)cc1 | 246 to 248
11 | CC(=O)Nc1ccc(CSc2ccc(CC(=O)O)cc2)c(C(=O)O)c1 | 205 to 207
12 | CCCCN1CN(C2CC(OC(=O)c3ccccc3C)C(COC(=O)c3ccccc3C)O2)C(=O)NC1=O (configuration not stated) | 170 to 172
13 | CC(C)=C1OC(=O)N(c2ccc(C)cc2)C1=O | 136
14 | CC(C)Cc1ccc(C(C)C(N)=O)cc1 (configuration not stated) | 84 to 86
15 | CC(C)c1cn2nc(Cl)ccc2n1 | 106 to 108
16 | N#Cc1cc(C#N)c(SC2SCC(O)C(O)C2O)c(C#N)c1 (configuration not stated) | 86 to 96
17 | FC(F)(F)c1nc(-c2ccccc2)c(-c2ccccc2)c(N2CCN(c3ccccn3)CC2)n1 | 165 to 167
18 | COc1cc2ccc(-c3ccccc3[N+](=O)[O-])cc2cc1OC | 244 to 246
19 | CC12CCC(C(=O)O)=CC1=CCC1C2CCC2(C)C(C(=O)CCc3ccc(F)cc3)CCC12 (configuration not stated) | 220
20 | COc1ccc(-c2cc(=O)n(C(C)C)nc2-c2ccc(OC)cc2)cc1 | 128 to 129
21 | Cc1cscc1-c1cccc2c1nnn2-c1ccnc(NC2CCN(S(C)(=O)=O)CC2)n1 | 244 to 245
22 | N#Cc1ccc(Nc2nc(NCc3ccco3)nc(Nc3ccc(O)cc3)n2)cc1 | 62 to 65
23 | COC(=O)c1ccc(OC)c2oc3ccnc(O)c3c12 | 205 to 207
24 | CC1=NC(c2ccc(F)cc2F)c2ccccc2CN1C (single isomer, unassigned; (+)) | 137 to 138
25 | CCCCCS(=O)(=O)NC(=O)C(Cc1ccc(OCCOC)cc1Oc1ncc(C(F)(F)F)cc1Cl)OC (configuration not stated) | 76 to 78
26 | O=c1[nH]c2cc(Sc3cccc4cnccc34)c([N+](=O)[O-])cc2s1 | > 270

Row | Compound | melting point [°C]
27 | CCn1ncc2c1ncc1c(Cl)nc3cc(C)nn3c12 | 179 to 180
28 | COc1cc(O)nc(C(C)(C)C)n1 | 175
29 | CSc1sc(-c2ccccn2)c2c1C(=O)CC(C)(C)C2 | 217 to 220
30 | COc1ccc(OCc2cccc(OCc3ccc4ccccc4n3)c2)cc1 | 83 to 85
31 | COc1ccc(OC(=O)CN2CCN(Cc3cc(OC)c(OC)c(OC)c3)CC2)cc1 | 94 to 97
32 | O=C(CCCN1CC=C(c2noc(C3CC3)n2)CC1)c1ccc(F)cc1 | 67 to 68
33 | ClCn1nnc2ccccc21 | 136
34 | COc1ccc2c(c1)Sc1ccc(SC)cc1C(=O)C2 | 127
35 | COc1cc2sc(C(=O)O)cc2c(Cl)c1OC | 267 to 270
36 | Cc1nc(-c2ccccc2)c(-c2ccccc2)nc1N(C)CCCCOCC(=O)OC(C)(C)C | 48 to 51
37 | CNc1ccc(-c2ccnc(-c3cn(C)c(=O)n3-c3ccc(C(C)(C)C#N)cc3)c2)cn1 | 191
38 | O=C(CCc1cccnc1)NC(Cc1c[nH]c2ccccc12)C(=O)CCc1cc(C(F)(F)F)cc(C(F)(F)F)c1 (configuration not stated) | 123 to 124
39 | CCOC(=O)C1[C@@H]2[C@@H](O)[C@@H]3O[C@H](c4ccc(OC)cc4)OC[C@H]3O[C@H]12 (some centres not stated) | 118 to 120
40 | CCCc1c(O)c(Cl)cc(C(C)=O)c1O | 96
41 | O=C(Nc1cc(F)ccc1N1CCCCC1)c1ccncc1 | 115 to 116
42 | O=C(CBr)Nc1cc(F)ccc1C(=O)O | 166 to 168
43 | CCOC(=O)c1ccc2nc3c(c(=O)n2c1)CSC3 | 183 to 185
44 | O=C(O)CCc1c(C(=O)O)[nH]c2cc(I)ccc12 | 230 to 232
45 | CC=CCn1c(C)c(CC)c2cnnc(OCc3ccc(F)cc3)c21 | 78 to 83
46 | Cc1ccc(-c2c(Cl)nc3ncnn3c2NC(C)C)c(F)c1 | 121
47 | CCCCc1nc2cc(C)c(C)cc2n1Cc1ccc(C#N)cc1 | 160
48 | Nc1ncnc2c1cnn2C1CCC(OCC(F)c2ccccc2)C(F)C1 (configuration not stated) | 209 to 211
49 | CCC(CC)Oc1cc(C)nc2c1nc(C)c(=O)n2-c1c(C)cc(C)cc1C | 215 to 217
50 | CCCn1c(-c2ccc3c(c2)OCO3)nc2ccccc21 | 77.5 to 78
51 | O=C(Cc1ccc(F)cc1)N1CCN(Cc2ccccc2)CC1 | 99 to 101
52 | CNc1nc(N)nc2c1ncn2C1C=CC(CO)C1 (configuration not stated) | 221 to 223
